According to patent publication US9533977B2, “Oxazolidinone derivative as CETP inhibitor, its preparation method, and pharmaceutical composition comprising the same” (DONG-A ST CO., LTD., priority 2013, dated 2017):

Biological target: T1, CETP (Homo sapiens, UniProt P11597)
T1 construct: from tissue; host or cells: human plasma from healthy men
T1 sequence (P11597 18-493): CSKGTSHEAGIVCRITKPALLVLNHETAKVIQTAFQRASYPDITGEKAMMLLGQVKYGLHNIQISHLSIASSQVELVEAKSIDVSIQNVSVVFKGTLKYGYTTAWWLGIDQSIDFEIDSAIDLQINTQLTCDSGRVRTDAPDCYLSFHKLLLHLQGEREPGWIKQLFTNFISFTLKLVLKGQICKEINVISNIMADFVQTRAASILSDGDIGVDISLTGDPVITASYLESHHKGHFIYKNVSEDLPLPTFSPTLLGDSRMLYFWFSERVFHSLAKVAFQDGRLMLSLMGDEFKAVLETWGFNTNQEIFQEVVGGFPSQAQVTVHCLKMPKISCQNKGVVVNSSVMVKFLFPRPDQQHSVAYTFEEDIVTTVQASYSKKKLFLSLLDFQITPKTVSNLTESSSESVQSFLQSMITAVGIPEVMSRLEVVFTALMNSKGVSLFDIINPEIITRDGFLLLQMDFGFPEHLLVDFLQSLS
Assay: Inhibitory activity against CETP in human plasma (Roar CETP activity kit, fluorescence)
Assay type: biochemical
Conditions: plasma from healthy men diluted 1:10 in assay buffer, 37° C., 3 hrs, fluorescence 465/535 nm; read-out: IC50, Inhibition of CETP Activity in Human Plasma
Outline: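 Healthy male human plasma, diluted 1:10, incubated 3 hrs at 37° C with donor/acceptor fluorescent substrates and compound (0.01–10000 nM, DMSO). Fluorescence at ex 465/em 535 nm, background-corrected against no-plasma and no-compound wells; IC50 from sigmoidal fit.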

SMILES | IC50
CCC1CCCN1c1cnc(N(CC)C2CCCCC2)c(CN2C(=O)O[C@H](c3cc(C(F)(F)F)cc(C(F)(F)F)c3)[C@@H]2C)c1 (stereo partly drawn) [Example 90, (4S,5R)-5-[3,5-bis(trifluoromethyl)phenyl]-4-methyl-3-({[2-(ethyl)(cyclohexyl)amino]-5-(2-ethyl-pyrrolidin-1-yl)pyridin-3-yl}methyl)-oxazolidin-2-one] | 11.8 nM
CCN(c1ncc(N2CCC(F)(F)C2)cc1CN1C(=O)O[C@H](c2cc(C(F)(F)F)cc(C(F)(F)F)c2)[C@@H]1C)C1CCCCC1 [Example 91, (4S,5R)-5-[3,5-bis(trifluoromethyl)phenyl]-4-methyl-3-({[2-(ethyl)(cyclohexyl)amino]-5-(3,3-difluoro-pyrrolidin-1-yl)pyridin-3-yl}methyl)-oxazolidin-2-one] | 26.7 nM
CCN(c1ncc(N2CCCC2C(F)(F)F)cc1CN1C(=O)O[C@H](c2cc(C(F)(F)F)cc(C(F)(F)F)c2)[C@@H]1C)C1CCCCC1 (stereo partly drawn) [Example 92, (4S,5R)-5-[3,5-bis(trifluoromethyl)phenyl]-4-methyl-3-({[2-(ethyl)(cyclohexyl)amino]-5-(2-(trifluoromethyl)-pyrrolidin-1-yl)pyridin-3-yl}methyl)-oxazolidin-2-one] | 48 nM
Cc1noc(C)c1-c1cnc(N2CCCCC2)c(CN2C(=O)O[C@@H](c3cc(C(F)(F)F)cc(C(F)(F)F)c3)[C@@H]2C)n1 [Example 98, (4S,5S)-5-[3,5-bis(trifluoromethyl)phenyl]-3-{[6-(3,5-dimethylisoxazol-4-yl)-3-(piperidin-1-yl)pyrazin-2-yl)methyl}-4-methyloxazolidin-2-one] | 2.61 nM
Cc1noc(C)c1-c1cnc(N2CC(C)OC(C)C2)c(CN2C(=O)O[C@@H](c3cc(C(F)(F)F)cc(C(F)(F)F)c3)[C@@H]2C)n1 (stereo partly drawn) [Example 99, (4S,5S)-5-[3,5-bis(trifluoromethyl)phenyl]-3-{[6-(3,5-dimethylisoxazol-4-yl)-3-(2,6-dimethylmorpholino)pyrazin-2-yl]methyl}-4-methyloxazolidin-2-one] | 83.1 nM
Cc1noc(C)c1-c1cnc(N2CCCC(C(F)(F)F)C2)c(CN2C(=O)O[C@@H](c3cc(C(F)(F)F)cc(C(F)(F)F)c3)[C@@H]2C)n1 (stereo partly drawn) [Example 100, (4S,5S)-5-[3,5-bis(trifluoromethyl)phenyl]-3-{[6-(3,5-dimethylisoxazol-4-yl)-3-[3-(trifluoromethyl)piperidin-1-yl]pyrazin-2-yl]methyl}-4-methyloxazolidin-2-one] | 15.6 nM
CCN(CC1CCCC1)c1ncc(-c2c(C)noc2C)nc1CN1C(=O)O[C@H](c2cc(C(F)(F)F)cc(C(F)(F)F)c2)[C@@H]1C [Example 101, (4S,5R)-5-[3,5-bis(trifluoromethyl)phenyl]-3-({[3-(cyclopentylmethyl)(ethyl)amino]-4-methyl 6-(3,5-dimethylisoxazol-4-yl)pyrazin-3-yl}methyl)-oxazolidin-2-one] | 3.45 nM
CCN(C[C@H]1CC[C@H](CC(=O)O)CC1)c1ncc(-c2c(C)noc2C)nc1CN1C(=O)OC(c2cc(C(F)(F)F)cc(C(F)(F)F)c2)[C@@H]1C (some centres unmarked) [Example 102] | 0.65 nM
CCN(C[C@H]1CC[C@H](CC(=O)O)CC1)c1ncc(-c2cccn2C)nc1CN1C(=O)OC(c2cc(C(F)(F)F)cc(C(F)(F)F)c2)[C@@H]1C (some centres unmarked) [Example 104] | 3.8 nM
CCN(CC1CCC(CC(=O)O)CC1)c1ncc(-c2ccnn2C)nc1CN1C(=O)OC(c2cc(C(F)(F)F)cc(C(F)(F)F)c2)C1C [Example 106, trans-4-({[3-({(4S,5S)-5-[3,5-bis(trifluoromethyl)phenyl]-4-methyl-2-oxazolidin-3-yl}methyl)-5-(1-methyl-1H-pyrazol-5-yl)pyrazin-2-yl]{[N-(ethyl)aminomethyl]cyclohexyl)}acetic acid] | 30.3 nM
CCN(CC1CCC(CC(=O)O)CC1)c1ncc(-c2cc(C)nn2C)nc1CN1C(=O)OC(c2cc(C(F)(F)F)cc(C(F)(F)F)c2)C1C [Example 107, trans-4-({[3-({(4S,5S)-5-[3,5-bis(trifluoromethyl)phenyl]-4-methyl-2-oxazolidin-3-yl}methyl)-5-(1,3-dimethyl-1H-pyrazol-5-yl)pyrazin-2-yl]{[N-(ethyl)aminomethyl]cyclohexyl)}acetic acid] | 37 nM
CCN(C[C@H]1CC[C@H](CC(=O)O)CC1)c1ncc(-c2cn(C)nc2C)nc1CN1C(=O)OC(c2cc(C(F)(F)F)cc(C(F)(F)F)c2)[C@@H]1C (some centres unmarked) [Example 108] | 45.9 nM
CCN(C[C@H]1CC[C@H](CC(=O)O)CC1)c1ncc(-c2sccc2OC)nc1CN1C(=O)OC(c2cc(C(F)(F)F)cc(C(F)(F)F)c2)[C@@H]1C (some centres unmarked) [Example 109] | 3.84 nM
CCN(C[C@H]1CC[C@H](CC(=O)O)CC1)c1ncc(-c2cc(C)cs2)nc1CN1C(=O)OC(c2cc(C(F)(F)F)cc(C(F)(F)F)c2)[C@@H]1C (some centres unmarked) [Example 110] | 56.2 nM
CCN(C[C@H]1CC[C@H](CC(=O)O)CC1)c1ncc(-c2sccc2C)nc1CN1C(=O)OC(c2cc(C(F)(F)F)cc(C(F)(F)F)c2)[C@@H]1C (some centres unmarked) [Example 111] | 3.11 nM
CCN(CC1CCC(CC(=O)O)CC1)c1ncc(-c2nccs2)nc1CN1C(=O)OC(c2cc(C(F)(F)F)cc(C(F)(F)F)c2)C1C [Example 112, trans-4-({[3-({(4S,5S)-5-[3,5-bis(trifluoromethyl)phenyl]-4-methyl-2-oxazolidin-3-yl}methyl)-5-(thiazol-2-yl)pyrazin-2-yl]{[N-(ethyl)aminomethyl]cyclohexyl)}acetic acid] | 37.4 nM
CCN(C[C@H]1CC[C@H](CC(=O)O)CC1)c1ncc(-c2cscn2)nc1CN1C(=O)OC(c2cc(C(F)(F)F)cc(C(F)(F)F)c2)[C@@H]1C (some centres unmarked) [Example 113] | 16 nM
CCN(C[C@H]1CC[C@H](CC(=O)O)CC1)c1ncc(-c2cccs2)nc1CN1C(=O)OC(c2cc(C(F)(F)F)cc(C(F)(F)F)c2)[C@@H]1C (some centres unmarked) [Example 114] | 10.3 nM
CCN(C[C@H]1CC[C@H](CC(=O)O)CC1)c1ncc(-c2ccccc2)nc1CN1C(=O)OC(c2cc(C(F)(F)F)cc(C(F)(F)F)c2)[C@@H]1C (some centres unmarked) [Example 116] | 6.29 nM
CCN(C[C@H]1CC[C@H](CC(=O)O)CC1)c1ncc(-c2ccc(C#N)cc2)nc1CN1C(=O)OC(c2cc(C(F)(F)F)cc(C(F)(F)F)c2)[C@@H]1C (some centres unmarked) [Example 117] | 11.7 nM
CCN(C[C@H]1CC[C@H](CC(=O)O)CC1)c1ncc(-c2cccnc2)nc1CN1C(=O)OC(c2cc(C(F)(F)F)cc(C(F)(F)F)c2)[C@@H]1C (some centres unmarked) [Example 119] | 78.2 nM
CCN(C[C@H]1CC[C@H](CC(=O)O)CC1)c1ncc(-c2cncc(F)c2)nc1CN1C(=O)OC(c2cc(C(F)(F)F)cc(C(F)(F)F)c2)[C@@H]1C (some centres unmarked) [Example 120] | 24.8 nM
CCN(C[C@H]1CC[C@H](CC(=O)O)CC1)c1ncc(C2CC2)nc1CN1C(=O)OC(c2cc(C(F)(F)F)cc(C(F)(F)F)c2)[C@@H]1C (some centres unmarked) [Example 121] | 3.88 nM
CCN(C[C@H]1CC[C@H](CC(=O)O)CC1)c1ncc(C2CCC2)nc1CN1C(=O)OC(c2cc(C(F)(F)F)cc(C(F)(F)F)c2)[C@@H]1C (some centres unmarked) [Example 122] | 4.68 nM
CCCN(C[C@H]1CC[C@H](CC(=O)O)CC1)c1ncc(-c2c(C)noc2C)nc1CN1C(=O)OC(c2cc(C(F)(F)F)cc(C(F)(F)F)c2)[C@@H]1C (some centres unmarked) [Example 123] | 7.19 nM
Cc1noc(C)c1-c1cnc(N(C)C[C@H]2CC[C@H](CC(=O)O)CC2)c(CN2C(=O)OC(c3cc(C(F)(F)F)cc(C(F)(F)F)c3)[C@@H]2C)n1 (some centres unmarked) [Example 126] | 17 nM
